# How the values were obtained:
# [1] = target: KHK-C expressed in NRK-52E cells (Homo sapiens (Human), UniProt P50053); assay: KHK-C Cell-based Assay (EC50), NRK CTG, fructose-mediated ATP-depletion
# human KHK-C = human KHK-C (Homo sapiens (Human), UniProt P50053); assay: KHK Biochemical Assay (IC50), ADP-Glo, KHK-C; conditions: ADP-Glo; average of at least two separate assays
# Method in brief: (§1)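 ADP-Glo luminescence measured ADP made over a 4 h room-temperature reaction of ATP plus fructose, started after 30 min compound–enzyme pre-incubation. Buffer: 50 mM Hepes pH 7.4, 140 mM KCl, 5 mM MgCl2, 0.01% Triton-X. Enzyme was His-tagged, BL21 (DE3)-expressed, Ni-NTA-purified; compounds in 1:3 DMSO dilution series.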
# human KHK-A = human KHK-A (Homo sapiens (Human), UniProt P50053); assay: KHK Biochemical Assay (IC50), ADP-Glo, KHK-A; conditions: ADP-Glo; average of at least two separate assays
# Method in brief: as §1
# Chain of human KHK-A (P50053 other isoform, or with tags, fused parts or gaps): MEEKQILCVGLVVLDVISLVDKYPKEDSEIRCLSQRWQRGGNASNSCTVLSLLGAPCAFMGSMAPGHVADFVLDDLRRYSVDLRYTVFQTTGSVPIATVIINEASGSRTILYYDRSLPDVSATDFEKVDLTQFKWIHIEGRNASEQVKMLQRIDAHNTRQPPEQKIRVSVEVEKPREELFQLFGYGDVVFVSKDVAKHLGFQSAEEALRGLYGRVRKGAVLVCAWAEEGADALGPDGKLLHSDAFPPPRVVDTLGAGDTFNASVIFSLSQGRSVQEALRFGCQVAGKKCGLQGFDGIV
# Chain of human KHK-C (P50053 whole entry): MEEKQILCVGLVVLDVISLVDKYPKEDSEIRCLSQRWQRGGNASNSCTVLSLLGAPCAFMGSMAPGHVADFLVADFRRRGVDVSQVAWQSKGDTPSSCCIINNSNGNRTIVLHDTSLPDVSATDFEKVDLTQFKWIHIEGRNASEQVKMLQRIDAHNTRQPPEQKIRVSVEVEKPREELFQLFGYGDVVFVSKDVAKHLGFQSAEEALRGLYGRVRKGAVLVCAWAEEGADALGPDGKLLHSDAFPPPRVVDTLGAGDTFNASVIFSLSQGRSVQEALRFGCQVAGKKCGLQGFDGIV
# Chain of KHK-C expressed in NRK-52E cells (P50053 whole entry): as above
Structure (SMILES),EC50 [1],IC50 (human KHK-C),IC50 (human KHK-A)
"C[C@]1(O)CCN(c2nc3c(c(-c4ccc(C(N)=O)cc4)n2)CCC3)C1 [Example 268, 4-[2-[(38)-3-hydroxy-3-methyl-pyrrolidin-1-yl]-6,7-dihydro-5H-cyclopenta[d]pyrimidin-4-yl]benzamide]",> 5000 nM,> 5000 nM,> 5000 nM
"C[C@H]1CCN1c1nc(-c2cccc(C(N)=O)c2)c2c(cnn2C)n1 [Example 271, (S)-3-(1-methyl-5-(2-methylazetidin-1-yl)-1H-pyrazolo[4,3-d]pyrimidin-7-yl)benzamide]",2320 nM,532 nM,518 nM
"C[C@H]1CCN1c1nc2c(c(-c3ccc4c(c3)CCO4)n1)CCC2 [Example 274, (S)-4-(2,3-dihydrobenzofuran-5-yl)-2-(2-methylazetidin-1-yl)-6,7-dihydro-5H-cyclopenta[d]pyrimidine]",205 nM,142 nM,204 nM
"C[C@H]1CCN1c1nc2c(c(-c3ccc4c(ccn4C)c3)n1)CCC2 [Example 275, (S)-4-(1-methyl-1H-indol-5-yl)-2-(2-methylazetidin-1-yl)-6,7-dihydro-5H-cyclopenta[d]pyrimidine]",291 nM,618 nM,1040 nM
"CC(O)c1cccc(-c2nc(N3CC[C@@H]3C)nc3c2CCC3)c1 (stereo partly drawn) [Example 276, 1-(3-(2-((S)-2-methylazetidin-1-yl)-6,7-dihydro-5H-cyclopenta[d]pyrimidin-4-yl)phenyl)ethan-1-ol]",110 nM,69.5 nM,66.6 nM
C[C@H]1[C@H](F)CN1c1nc2c(c(-c3cccc(CNS(C)(=O)=O)c3)n1)CCC2 [Example 284],55.7 nM,16.4 nM,21.8 nM
C[C@H]1[C@H](O)CN1c1nc2c(c(-c3ccc4c(c3)CCNC4=O)n1)CCC2 [Example 288],108 nM,44.3 nM,103 nM
"C[C@H]1[C@H](F)CN1c1nc2c(c(-c3cccc(NS(C)(=O)=O)c3)n1)CCC2 [Example 290, N-(3-(2-((2S,3R)-3-fluoro-2-methylazetidin-1-yl)-6,7-dihydro-5H-cyclopenta[d]pyrimidin-4-yl)phenyl)methanesulfonamide]",71.3 nM,30.9 nM,50.5 nM
"C[C@H]1CCN1c1nc2c(c(-c3ccc(C(N)=O)c(Cl)c3)n1)CCC2 [Example 303, (S)-2-chloro-4-(2-(2-methylazetidin-1-yl)-6,7-dihydro-5H-cyclopenta[d]pyrimidin-4-yl)benzamide]",91.5 nM,49.7 nM,29.7 nM
C[C@H]1[C@H](O)CN1c1nc2c(c(-c3ccc(C(N)=O)c(F)c3)n1)CCC2 [Example 307],166 nM,69.9 nM,86.5 nM
C[C@H]1[C@H](O)CN1c1nc2c(c(-c3ccc(C(N)=O)c(Cl)c3)n1)CCC2 [Example 308],294 nM,97.5 nM,130 nM
"COc1cc(-c2nc(N3CC[C@@H]3C)nc3c2CCC3)ccc1C#N [Example 310, (S)-2-methoxy-4-(2-(2-methylazetidin-1-yl)-6,7-dihydro-5H-cyclopenta[d]pyrimidin-4-yl)benzonitrile]",1810 nM,555 nM,449 nM
"C[C@H]1CCN1c1nc2c(c(-c3ccc(C4(NC(=O)OC(C)(C)C)CCC4)cc3)n1)CCC2 [Example 311, (S)-tert-butyl (1-(4-(2-(2-methylazetidin-1-yl)-6,7-dihydro-5H-cyclopenta[d]pyrimidin-4-yl)phenyl)cyclobutyl)carbamate]",915 nM,> 5000 nM,> 5000 nM
"C[C@H]1CCN1c1nc2c(c(-c3ccc(C#N)c(F)c3)n1)CCC2 [Example 313, (S)-2-fluoro-4-(2-(2-methylazetidin-1-yl)-6,7-dihydro-5H-cyclopenta[d]pyrimidin-4-yl)benzonitrile]",2080 nM,1150 nM,1030 nM
"C[C@H]1CCN1c1nc2c(c(-c3ccc(C#N)c(Cl)c3)n1)CCC2 [Example 314, (S)-2-chloro-4-(2-(2-methylazetidin-1-yl)-6,7-dihydro-5H-cyclopenta[d]pyrimidin-4-yl)benzonitrile]",4490 nM,1940 nM,2020 nM
"C[C@H]1CCN1c1nc2c(c(-c3cc(F)c(C(N)=O)c(F)c3)n1)CCC2 [Example 315, (S)-2,6-difluoro-4-(2-(2-methylazetidin-1-yl)-6,7-dihydro-5H-cyclopenta[d]pyrimidin-4-yl)benzamide]",57.3 nM,34 nM,31.5 nM
"C[C@H]1CCN1c1nc2c(c(-c3ccc(C(N)=O)c(NS(C)(=O)=O)c3)n1)CCC2 [Example 320, (S)-4-(2-(2-methylazetidin-1-yl)-6,7-dihydro-5H-cyclopenta[d]pyrimidin-4-yl)-2-(methylsulfonamido)benzamide]",638 nM,244 nM,210 nM
"C[C@H]1CCN1c1nc(-c2ccccc2)c2c(n1)[C@@H]1C[C@@H]1C2 [Example 333, (5aR,6aR)-2-((S)-2-methylazetidin-1-yl)-4-phenyl-5,5a,6,6a-tetrahydrocyclopropa[4,5]cyclopenta[1,2-d]pyrimidine]",1130 nM,1310 nM,1310 nM
"C[C@H]1CCN1c1nc2c(c(-c3cccc(CN4CCOCC4)c3)n1)CCC2 [Example 349, 4-[[3-[2-[(2S)-2-methylazetidin-1-yl]-6,7-dihydro-5H-cyclopenta[d]pyrimidin-4-yl]phenyl]methyl]morpholine]",305 nM,90.6 nM,79.3 nM
"CC(=O)Nc1ccc(-c2nc(N3CC[C@@H]3C)nc3c2CCC3)cc1 [Example 355, N-[4-[2-[(2S)-2-methylazetidin-1-yl]-6,7-dihydro-5H-cyclopenta[d]pyrimidin-4-yl]phenyl]acetamide]",92.4 nM,72.7 nM,33.3 nM

# These reach a lower EC50 [1]. Values come first.
EC50 [1],IC50 (human KHK-C),IC50 (human KHK-A),Structure (SMILES)
26.7 nM,15.3 nM,11.9 nM,"C[C@H]1CCN1c1nc2c(c(-c3cccc(CNS(C)(=O)=O)c3)n1)CCC2 [Example 277, (S)—N-(3-(2-(2-methylazetidin-1-yl)-6,7-dihydro-5H-cyclopenta[d]pyrimidin-4-yl)benzyl)methanesulfonamide]"
34.5 nM,17.5 nM,57.9 nM,C[C@H]1[C@H](F)CN1c1nc2c(c(-c3ccc4c(c3)CCNC4=O)n1)CCC2 [Example 289]
15.8 nM,17.4 nM,19 nM,"COc1cc(-c2nc(N3CC[C@@H]3C)nc3c2CCC3)ccc1C(N)=O [Example 309, (S)-2-methoxy-4-(2-(2-methylazetidin-1-yl)-6,7-dihydro-5H-cyclopenta[d]pyrimidin-4-yl)benzamide]"
35 nM,42.9 nM,19 nM,"C[C@H]1CCN1c1nc2c(c(-c3ccc(C(N)=O)c(C(F)(F)F)c3)n1)CCC2 [Example 316, (S)-4-(2-(2-methylazetidin-1-yl)-6,7-dihydro-5H-cyclopenta[d]pyrimidin-4-yl)-2-(trifluoromethyl)benzamide]"
37.3 nM,20.9 nM,25 nM,"CCOc1cc(-c2nc(N3CC[C@@H]3C)nc3c2CCC3)ccc1C(N)=O [Example 319, (S)-2-ethoxy-4-(2-(2-methylazetidin-1-yl)-6,7-dihydro-5H-cyclopenta[d]pyrimidin-4-yl)benzamide]"
7.3 nM,4.4 nM,4.8 nM,"C[C@H]1CCN1c1nc(-c2cccc(S(N)(=O)=O)c2)c2c(n1)C(F)(F)CC2 [Example 321, (S)-3-(7,7-difluoro-2-(2-methylazetidin-1-yl)-6,7-dihydro-5H-cyclopenta[d]pyrimidin-4-yl)benzenesulfonamide]"
16.1 nM,4.2 nM,4.7 nM,"C[C@H]1CCN1c1nc(-c2cccc(CNS(C)(=O)=O)c2)c2c(n1)C(F)(F)CC2 [Example 323, (S)—N-(3-(7,7-difluoro-2-(2-methylazetidin-1-yl)-6,7-dihydro-5H-cyclopenta[d]pyrimidin-4-yl)benzyl)methanesulfonamide]"
13.1 nM,19.2 nM,22.4 nM,"CNCc1cccc(-c2nc(N3CC[C@@H]3C)nc3c2CCC3)c1 [Example 330, N-methyl-1-[3-[2-[(2S)-2-methylazetidin-1-yl]-6,7-dihydro-5H-cyclopenta[d]pyrimidin-4-yl]phenyl]methanamine]"
53.7 nM,45.1 nM,12.6 nM,"C[C@H]1CCN1c1nc2c(c(-c3cccc(CN4CCCCC4)c3)n1)CCC2 [Example 345, 2-[(2S)-2-methylazetidin-1-yl]-4-[3-(1-piperidylmethyl)phenyl]-6,7-dihydro-5H-cyclopenta[d]pyrimidine]"
27.5 nM,14.7 nM,16.7 nM,"C[C@H]1CCN1c1nc2c(c(-c3cccc(CN(C)C)c3)n1)CCC2 [Example 346, N,N-dimethyl-1-[3-[2-[(2S)-2-methylazetidin-1-yl]-6,7-dihydro-5H-cyclopenta[d]pyrimidin-4-yl]phenyl]methanamine]"
35.1 nM,22.7 nM,24.2 nM,"C[C@H]1CCN1c1nc2c(c(-c3cccc(CN4CCCC4)c3)n1)CCC2 [Example 348, 2-[(2S)-2-methylazetidin-1-yl]-4-[3-(pyrrolidin-1-ylmethyl)phenyl]-6,7-dihydro-5H-cyclopenta[d]pyrimidine]"
14 nM,19.3 nM,16.8 nM,"C[C@H]1CCN1c1nc2c(c(-c3cccc(CN4CC(O)C4)c3)n1)CCC2 [Example 350, 1-[[3-[2-[(2S)-2-methylazetidin-1-yl]-6,7-dihydro-5H-cyclopenta[d]pyrimidin-4-yl]phenyl]methyl]azetidin-3-ol]"
